In US12427134B2, “Methods of reducing the risk of cardiovascular events in a subject with atrial fibrillation and/or atrial flutter” (priority 2019, dated 2025):

Columns and labels:
[1] = system: hypertriglyceridemic patients with cardiovascular disease or at high risk for cardiovascular disease; test: REDUCE-IT: post hoc control group response analyses (placebo patients with biomarker increase vs no change/decrease); type: in vivo, human
Text: The objective of the following example was to perform a control group analysis of the ischemic events in patients from the REDUCE-IT trial, as described in Example 1. The study focused on exploring if outcomes were affected by possible malabsorption. If mineral oil in the placebo might have negatively affected statin absorption in some patients, this could have contributed to differences in outcomes between the groups.

[2] = system: hypertriglyceridemic patients with cardiovascular disease or at high risk for cardiovascular disease; test: REDUCE-IT: fasting lipid, lipoprotein and inflammatory biomarkers and serum EPA, change from baseline; type: in vivo, human; conditions: for Approximated LDL-C (Hopkins), median difference from placebo in percent change from baseline: Hodges-Lehmann estimate
Experimental: Fasting Lipid Profile: The fasting lipid panel included: TG, TC, LDL-C, HDL-C, non-HDL-C, and VLDL-C. At all visits, LDL-C was calculated using the Friedewald equation. At Visit 1 and Visit 1.1 direct LDL-C were used if at the same visit TG >400 mg/dL (4.52 mmol/L). These LDL-C values were used for the evaluation of the LDL-C inclusion criterion (LDL-C qualifying measurements for randomization) and for the assessment of changes in the statin therapy when LDL-C was not at goal. […] In addition, irrespective of the TG levels, at Visit 2 (0 Months of Follow-up, baseline) and at Visit 4 (12 Months of Follow-up), LDL-C were measured by preparative ultracentrifugation. These preparative ultracentrifugation LDL-C measurements were used in the statistical analysis including the calculation of the percent change from baseline (1 year versus baseline). Hopkins LDL-C was calculated for each visit.
Biomarkers Assays: The biomarker assays included: hsCRP, Apo B and hsTnT.
The fasting lipid panel was tested at Screening (Visit 1 or Visit 1.1), Randomization visit (Visit 2; Day 0), Visit 3 (Day 120; ˜4 Months) and all other follow-up visits including the last visit. For change from baseline to 1 year preparative ultracentrifugation measurements for LDL-C were analyzed, unless this value was missing. If the LDL-C preparative ultracentrifugation values were missing, then another LDL-C value was used, with prioritization of values obtained from LDL-C Direct measurements, followed by LDL-C derived by the Friedewald calculation (only for subjects with TG <400 mg/dL), and finally LDL-C derived using the calculation published by Hopkins University investigators (Martin S S, Blaha M J, Elshazly M B, et al. Comparison of a novel method vs the Friedewald equation for estimating low-density lipoprotein cholesterol levels from the standard lipid profile. JAMA. 2013; 310:2061-8.). In addition, change from baseline to day 120 in LDL-C utilizing Friedewald's and Hopkins methods was analyzed, using the arithmetic mean of LDL-C obtained at Visit 2 (Day 0) and the preceding Visit 1 (or Visit 1.1). If one of these values was missing, the single available LDL-C value was used. LDL-C according to Hopkins was calculated at each visit.
The randomization visit was considered Baseline. If a baseline value was not available from the randomization visit, then the latest screening value was used. For measurements of lipids, lipoproteins and inflammatory markers, the change and the percent change were summarized at each visit. Since these biomarkers are typically not normally distributed, the Wilcoxon rank-sum test was used for treatment comparisons of the percent change from baseline, and medians and quartiles were provided for each treatment group. The medians of the differences between the treatment groups and 95% CIs were estimated with the Hodges-Lehmann method. In addition, shift-tables were generated as appropriate.

[3] = Last Visit, vs placebo, ITT population
[4] = baseline to the last study value

## CC/C=C\C/C=C\C/C=C\C/C=C\C/C=C\CCCC(=O)OCC [AMR101, eicosapentaenoic acid ethyl ester]
[1]; LDL-C at one year
  Key secondary endpoint, HR AMR101 group versus placebo patients with an increase in LDL-C: 0.80
  Key secondary endpoint, HR AMR101 group versus placebo patients with no change or a decrease in LDL-C: 0.74
  Primary endpoint, HR AMR101 group versus placebo patients with an increase in LDL-C: 0.79
  Primary endpoint, HR AMR101 group versus placebo patients with no change or a decrease in LDL-C: 0.79
[1]; hsCRP at two years
  Key secondary endpoint, HR AMR101 group versus placebo patients with an increase in hsCRP: 0.83
  Key secondary endpoint, HR AMR101 group versus placebo patients with no change or a decrease in hsCRP: 0.85
  Primary endpoint, HR AMR101 group versus placebo patients with an increase in hsCRP: 0.79
  Primary endpoint, HR AMR101 group versus placebo patients with no change or a decrease in hsCRP: 0.83
[2]; Baseline, ITT population
  Apo B Median Observed Value: 82.0 mg/dL
  LDL-C Hopkins Median Observed Value: 85.8 mg/dL
  LDL-C derived Median Observed Value: 74.0
  Non-HDL-C Median Observed Value: 118.0 mg/dL
  Triglycerides Median Observed Value: 216.5 mg/dL
  hsCRP Median Observed Value: 2.2 mg/L
[2]; Last Visit, ITT population
  LDL-C derived Median Observed Value: 77.0
  Triglycerides Median Absolute Change from Baseline: 45.0 mg/dL
[2]; [3]
  LDL-C derived Between Group Difference Median % Change from Baseline: −6.6%
  LDL-C derived Between Group Difference Median Absolute Change from Baseline: −5.0
[2]; Year 1
  HDL-C, median: 39.0 mg/dL
  LDL-C, median: 77.0 mg/dL
[2]; Year 1, vs placebo
  HDL-C, median between group difference, % change from baseline: −6.3%
  HDL-C, median between group difference, absolute change from baseline: -2.5 mg/dL
  LDL-C, median between group difference, % change from baseline: −6.6%
  LDL-C, median between group difference, absolute change from baseline: -5.0 mg/dL
[2]; Year 1, vs placebo, ITT population
  Triglycerides Between Group Difference Median Absolute Change from Baseline: 44.5 mg/dL
[2]; Year 2, ITT population
  Non-HDL-C Median Observed Value: 113.0 mg/dL
[2]; Year 2, vs placebo, ITT population
  Triglycerides Between Group Difference Median % Change from Baseline: −19.7%
[2]; Year 3, ITT population
  HDL-C Median Observed Value: 40.0 mg/dL
  Non-HDL-C Median Absolute Change from Baseline: 4.8 mg/dL
[2]; Year 4, ITT population
  Non-HDL-C Median % Change from Baseline: 4.2%
[2]; Year 5, ITT population
  Non-HDL-C Median % Change from Baseline: 4.4%
[2]; baseline to one year
  Approximated LDL-C (Hopkins), median change from baseline: -1.1 mg/dL
  Approximated LDL-C (Hopkins), median percent change from baseline: −1.2%
  Triglycerides, median change from baseline: -39.0 mg/dL
  Triglycerides, median percent change from baseline: −18.3%
[2]; [4]
  Approximated LDL-C (Hopkins), median change from baseline: -1.0 mg/dL
  Approximated LDL-C (Hopkins), median percent change from baseline: −1.2%
  Triglycerides, median change from baseline: -45.0 mg/dL
  Triglycerides, median percent change from baseline: −21.6%
[2]; last study value
  Approximated LDL-C (Hopkins), median difference from placebo in percent change from baseline: −7.4%
[2]; one year
  Triglycerides, greater reduction than in the placebo group: 44.5 mg/dL
  Approximated LDL-C (Hopkins), median difference from placebo in percent change from baseline: −11.4%
[2]; one year, Hodges-Lehmann approach
  Triglycerides, median reduction from baseline greater than in the placebo group: 19.7%
